Experimental data as given in ChEMBL document CHEMBL3822457, “Synthesis and biological analysis of novel glycoside derivatives of l-AEP, as targeted antibacterial agents” (2016).
Active and inactive are the calls of the source. The calls are words filed in the database; no cut-off is given here.

Key:
Cronobacter sakazakii [1] = test: Antibacterial activity against Cronobacter sakazakii ATCC 29544 at 2 mg/ml in presence of DM1 at pH 7.2 in absence of IPTG; assay type: functional
Salmonella typhimurium [2] = test: Antibacterial activity against Salmonella enterica serovar Typhimurium ATCC 14028 at 2 mg/ml in presence of DM1 and IPTG at pH 7.2; assay type: functional, organism-based; settings: Salmonella enterica subsp. enterica serovar Typhimurium
Klebsiella aerogenes [3] = test: Antibacterial activity against Enterobacter aerogenes ATCC 13048 at 2 mg/ml in presence of DM1 at pH 7.2 in absence of IPTG; assay type: functional, organism-based
Salmonella typhimurium [4] = test: Antibacterial activity against Salmonella enterica serovar Typhimurium ATCC 14028 at 2 mg/ml in presence of DM1 at pH 7.2 in absence of IPTG; assay type: functional, organism-based; settings: Salmonella enterica subsp. enterica serovar Typhimurium
Klebsiella pneumoniae [5] = test: Antibacterial activity against Klebsiella pneumoniae ATCC 13882 at 2 mg/ml in presence of DM1 at pH 7.2 in absence of IPTG; assay type: functional, organism-based
Cronobacter sakazakii [6] = test: Antibacterial activity against Cronobacter sakazakii ATCC 29544 at 2 mg/ml in presence of DM1 and IPTG at pH 7.2; assay type: functional
Klebsiella aerogenes [7] = test: Antibacterial activity against Enterobacter aerogenes ATCC 13048 at 2 mg/ml in presence of DM1 and IPTG at pH 7.2; assay type: functional, organism-based
[8] = tested on: Salmonella enterica subsp. enterica serovar Virchow; test: Antibacterial activity against Salmonella enterica serovar Virchow ATCC 5742 at 2 mg/ml in presence of DM1 and IPTG at pH 7.2; assay type: functional
Klebsiella pneumoniae [9] = test: Antibacterial activity against Klebsiella pneumoniae ATCC 13882 at 2 mg/ml in presence of DM1 and IPTG at pH 7.2; assay type: functional, organism-based
[10] = tested on: Salmonella enterica subsp. enterica serovar Virchow; test: Antibacterial activity against Salmonella enterica serovar Virchow ATCC 5742 at 2 mg/ml in presence of DM1 at pH 7.2 in absence of IPTG; assay type: functional
Pseudomonas aeruginosa [11] = test: Antibacterial activity against Pseudomonas aeruginosa ATCC 27853 in presence of DM1 at pH 7.2; assay type: functional
Proteus mirabilis [12] = test: Antibacterial activity against Proteus mirabilis ATCC 14253 in presence of DM1 and glucose at pH 7.2; assay type: functional
Salmonella typhimurium [13] = test: Antibacterial activity against Salmonella enterica serovar Typhimurium ATCC 14028 in presence of DM1 and glucose at pH 7.2; assay type: functional, Salmonella enterica subsp. enterica serovar Typhimurium
Proteus mirabilis [14] = test: Antibacterial activity against Proteus mirabilis ATCC 14253 in presence of DM1 at pH 6.9; assay type: functional
Proteus mirabilis [15] = test: Antibacterial activity against Proteus mirabilis ATCC 14253 in presence of NB2 medium at pH 7.2; assay type: functional
Cronobacter sakazakii [16] = test: Antibacterial activity against Cronobacter sakazakii ATCC 29544 in presence of DM1 at pH 7.2; assay type: functional
[17] = Antibacterial activity against Salmonella enterica serovar Virchow ATCC 5742 in presence of NB2 medium at pH 7.2; assay type: functional, Salmonella enterica subsp. enterica serovar Virchow
Pseudomonas aeruginosa [18] = test: Antibacterial activity against Pseudomonas aeruginosa ATCC 27853 in presence of DM1 and glucose at pH 7.2; assay type: functional
Proteus mirabilis [19] = test: Antibacterial activity against Proteus mirabilis ATCC 14253 in presence of DM1 at pH 7.2; assay type: functional
Klebsiella pneumoniae [20] = test: Antibacterial activity against Klebsiella pneumoniae ATCC 13882 in presence of DM1 and glucose at pH 7.2; assay type: functional
Serratia marcescens [21] = test: Antibacterial activity against Serratia marcescens ATCC 13880 in presence of DM1 and glucose at pH 7.2; assay type: functional; settings: subsp. marcescens ATCC 13880
Cronobacter sakazakii [22] = test: Antibacterial activity against Cronobacter sakazakii ATCC 29544 in presence of DM1 at pH 6.9; assay type: functional
Klebsiella aerogenes [23] = test: Antibacterial activity against Enterobacter aerogenes ATCC 13048 in presence of DM1 and glucose at pH 7.2; assay type: functional
Klebsiella aerogenes [24] = test: Antibacterial activity against Enterobacter aerogenes ATCC 13048 in presence of NB2 medium at pH 7.2; assay type: functional
Klebsiella pneumoniae [25] = test: Antibacterial activity against Klebsiella pneumoniae ATCC 13882 in presence of DM1 at pH 6.9; assay type: functional
Pseudomonas aeruginosa [26] = test: Antibacterial activity against Pseudomonas aeruginosa ATCC 27853 in presence of DM1 at pH 6.9; assay type: functional
[27] = Antibacterial activity against Salmonella enterica serovar Virchow ATCC 5742 in presence of DM1 at pH 7.2; assay type: functional, Salmonella enterica subsp. enterica serovar Virchow
Klebsiella pneumoniae [28] = test: Antibacterial activity against Klebsiella pneumoniae ATCC 13882 in presence of NB2 medium at pH 7.2; assay type: functional
Klebsiella aerogenes [29] = test: Antibacterial activity against Enterobacter aerogenes ATCC 13048 in presence of DM1 at pH 6.9; assay type: functional
Klebsiella pneumoniae [30] = test: Antibacterial activity against Klebsiella pneumoniae ATCC 13882 in presence of DM1 at pH 7.2; assay type: functional
Salmonella typhimurium [31] = test: Antibacterial activity against Salmonella enterica serovar Typhimurium ATCC 14028 in presence of NB2 medium at pH 7.2; assay type: functional, Salmonella enterica subsp. enterica serovar Typhimurium
Serratia marcescens [32] = test: Antibacterial activity against Serratia marcescens ATCC 13880 in presence of NB2 medium at pH 7.2; assay type: functional; settings: subsp. marcescens ATCC 13880
[33] = Antibacterial activity against Salmonella enterica serovar Virchow ATCC 5742 in presence of DM1 at pH 6.9; assay type: functional, Salmonella enterica subsp. enterica serovar Virchow
Pseudomonas aeruginosa [34] = test: Antibacterial activity against Pseudomonas aeruginosa ATCC 27853 in presence of NB2 medium at pH 7.2; assay type: functional
Serratia marcescens [35] = test: Antibacterial activity against Serratia marcescens ATCC 13880 in presence of DM1 at pH 6.9; assay type: functional; settings: subsp. marcescens ATCC 13880
Serratia marcescens [36] = test: Antibacterial activity against Serratia marcescens ATCC 13880 in presence of DM1 at pH 7.2; assay type: functional; settings: subsp. marcescens ATCC 13880
[37] = Antibacterial activity against Salmonella enterica serovar Virchow ATCC 5742 in presence of DM1 and glucose at pH 7.2; assay type: functional, Salmonella enterica subsp. enterica serovar Virchow
Klebsiella aerogenes [38] = test: Antibacterial activity against Enterobacter aerogenes ATCC 13048 in presence of DM1 at pH 7.2; assay type: functional
Salmonella typhimurium [39] = test: Antibacterial activity against Salmonella enterica serovar Typhimurium ATCC 14028 in presence of DM1 at pH 6.9; assay type: functional, Salmonella enterica subsp. enterica serovar Typhimurium
Cronobacter sakazakii [40] = test: Antibacterial activity against Cronobacter sakazakii ATCC 29544 in presence of DM1 and glucose at pH 7.2; assay type: functional
Cronobacter sakazakii [41] = test: Antibacterial activity against Cronobacter sakazakii ATCC 29544 in presence of NB2 medium at pH 7.2; assay type: functional
Salmonella typhimurium [42] = test: Antibacterial activity against Salmonella enterica serovar Typhimurium ATCC 14028 in presence of DM1 at pH 7.2; assay type: functional, Salmonella enterica subsp. enterica serovar Typhimurium

## C[C@H](NC(=O)O[C@@H]1O[C@H](CO)[C@H](O)[C@H](O)[C@H]1O)P(=O)(O)O
Cronobacter sakazakii [1]
  Activity: inactive
Salmonella typhimurium [2]
  Activity: inactive
Klebsiella aerogenes [3]
  Activity: inactive
Salmonella typhimurium [4]
  Activity: inactive
Klebsiella pneumoniae [5]
  Activity: inactive
Cronobacter sakazakii [6]
  Activity: Active
Klebsiella aerogenes [7]
  Activity: inactive
[8]
  Activity: inactive
Klebsiella pneumoniae [9]
  Activity: Active
[10]
  Activity: inactive

## C[C@H](NC(=O)O[C@@H]1O[C@H](CO)[C@@H](O)[C@H](O)[C@H]1O)P(=O)(O)O
Pseudomonas aeruginosa [11]
  MIC: < 0.75 µg/mL
Proteus mirabilis [12]
  MIC: > 1 µg/mL
Salmonella typhimurium [13]
  MIC: > 1 µg/mL
Proteus mirabilis [14]
  MIC: > 1 µg/mL
Proteus mirabilis [15]
  MIC: > 1 µg/mL
Cronobacter sakazakii [16]
  MIC: < 0.75 µg/mL
[17]
  MIC: > 1 µg/mL
Pseudomonas aeruginosa [18]
  MIC: 1 µg/mL
Proteus mirabilis [19]
  MIC: > 1 µg/mL
Klebsiella pneumoniae [20]
  MIC: 1 µg/mL
Serratia marcescens [21]
  MIC: 1 µg/mL
Cronobacter sakazakii [22]
  MIC: < 0.75 µg/mL
Klebsiella aerogenes [23]
  MIC: 1 µg/mL
Klebsiella aerogenes [24]
  MIC: > 1 µg/mL
Klebsiella pneumoniae [25]
  MIC: > 1 µg/mL
Pseudomonas aeruginosa [26]
  MIC: < 0.75 µg/mL
[27]
  MIC: > 1 µg/mL
Klebsiella pneumoniae [28]
  MIC: > 1 µg/mL
Klebsiella aerogenes [29]
  MIC: < 0.75 µg/mL
Klebsiella pneumoniae [30]
  MIC: > 1 µg/mL
Salmonella typhimurium [31]
  MIC: > 1 µg/mL
Serratia marcescens [32]
  MIC: > 1 µg/mL
[33]
  MIC: > 1 µg/mL
Pseudomonas aeruginosa [34]
  MIC: 1 µg/mL
Serratia marcescens [35]
  MIC: < 0.75 µg/mL
Serratia marcescens [36]
  MIC: 1 µg/mL
[37]
  MIC: > 1 µg/mL
Klebsiella aerogenes [38]
  MIC: > 1 µg/mL
Salmonella typhimurium [39]
  MIC: > 1 µg/mL
Cronobacter sakazakii [40]
  MIC: < 0.75 µg/mL
Cronobacter sakazakii [41]
  MIC: 1 µg/mL
Salmonella typhimurium [42]
  MIC: > 1 µg/mL
